The EC50 is the concentration that produces a half-maximal response. A word on the IC50: it is the concentration that inhibits the measured activity by half. Low values mean greater potency, high ones weaker potency. The term inhibition denotes the change of the read-out against control, counted positive when it falls.

Test [1] deals with T1, Glucocorticoid receptor (Mus musculus, UniProt P06537).
T1 sequence (P06537 whole entry): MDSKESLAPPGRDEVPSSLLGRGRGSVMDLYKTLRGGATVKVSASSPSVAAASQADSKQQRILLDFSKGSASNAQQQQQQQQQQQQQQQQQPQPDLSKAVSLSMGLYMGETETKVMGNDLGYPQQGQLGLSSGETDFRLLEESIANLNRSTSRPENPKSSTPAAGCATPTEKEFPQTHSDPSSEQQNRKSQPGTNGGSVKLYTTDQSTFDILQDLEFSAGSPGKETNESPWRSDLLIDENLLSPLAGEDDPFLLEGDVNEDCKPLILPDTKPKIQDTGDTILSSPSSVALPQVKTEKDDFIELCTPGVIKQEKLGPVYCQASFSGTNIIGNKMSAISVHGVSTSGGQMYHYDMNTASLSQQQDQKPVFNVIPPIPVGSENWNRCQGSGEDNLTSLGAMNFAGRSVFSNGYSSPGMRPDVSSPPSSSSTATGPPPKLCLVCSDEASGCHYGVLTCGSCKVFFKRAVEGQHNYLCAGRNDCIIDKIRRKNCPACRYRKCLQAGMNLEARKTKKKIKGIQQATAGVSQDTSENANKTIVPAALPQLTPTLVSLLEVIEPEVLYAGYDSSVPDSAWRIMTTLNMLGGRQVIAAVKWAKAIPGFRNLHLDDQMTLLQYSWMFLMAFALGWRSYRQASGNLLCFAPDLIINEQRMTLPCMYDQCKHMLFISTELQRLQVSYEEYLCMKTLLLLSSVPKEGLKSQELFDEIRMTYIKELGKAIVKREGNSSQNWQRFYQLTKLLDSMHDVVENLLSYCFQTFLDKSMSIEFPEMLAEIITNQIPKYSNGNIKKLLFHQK
Nature of the test: Inhibition of mouse glutamine synthetase by GR-mediated transactivation in C2C12 cells. The class given is cell-based.

In test [2] the target is T1, Glucocorticoid receptor. Briefly: GR-mediated transrepression of IL-6 in peritoneal exudate cells harvested from C57BI/6 mice. The class given is cell-based.
For test [3], the target named is T2, Glucocorticoid receptor (Homo sapiens, UniProt P04150).
T2 sequence (P04150 whole entry): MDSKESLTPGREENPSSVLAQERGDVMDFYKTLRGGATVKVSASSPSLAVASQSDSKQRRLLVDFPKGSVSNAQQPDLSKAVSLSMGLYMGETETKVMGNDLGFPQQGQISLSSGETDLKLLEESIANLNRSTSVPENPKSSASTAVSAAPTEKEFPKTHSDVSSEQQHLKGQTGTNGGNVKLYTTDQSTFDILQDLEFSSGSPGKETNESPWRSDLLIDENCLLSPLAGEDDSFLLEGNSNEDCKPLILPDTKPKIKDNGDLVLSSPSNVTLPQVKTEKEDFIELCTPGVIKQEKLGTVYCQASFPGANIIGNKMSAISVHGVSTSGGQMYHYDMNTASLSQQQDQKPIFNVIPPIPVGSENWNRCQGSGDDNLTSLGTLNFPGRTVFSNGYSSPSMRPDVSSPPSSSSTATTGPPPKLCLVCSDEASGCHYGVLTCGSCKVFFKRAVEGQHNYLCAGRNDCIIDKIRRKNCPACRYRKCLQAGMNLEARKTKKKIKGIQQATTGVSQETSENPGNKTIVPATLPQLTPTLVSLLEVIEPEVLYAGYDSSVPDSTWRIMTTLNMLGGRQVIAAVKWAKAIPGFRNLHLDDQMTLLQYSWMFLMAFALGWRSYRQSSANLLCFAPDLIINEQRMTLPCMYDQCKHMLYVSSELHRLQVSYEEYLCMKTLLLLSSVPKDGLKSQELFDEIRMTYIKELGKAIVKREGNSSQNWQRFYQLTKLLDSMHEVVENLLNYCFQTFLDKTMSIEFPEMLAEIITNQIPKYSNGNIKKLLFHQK
Nature of the test: Inhibition of human glucocorticoid receptor alpha by displacement of [3H]dexamethasone. (In general: In a radioligand displacement assay an active substance lowers the binding of a labelled ligand.)

Test [4] deals with T2, Glucocorticoid receptor. Nature of the test: GR-mediated transrepression of IL-6 in human A549 lung carcinoma cells. The class given is functional, cell-based.
For test [5], the target named is T3, Glucocorticoid receptor (Mus musculus) (UniProt P06537).
T3 sequence (whole entry): T1 sequence (P06537 whole entry)
Briefly: Percent absolute inhibition of LPS-induced tumor necrosis factor alpha release in mice at 3 mg/kg dose. The class given is organism-based. Also noted: dose 3 mg/kg.

For test [6], the target named is T3, Glucocorticoid receptor (Mus musculus). Nature of the test: Percent inhibition of LPS-induced tumor necrosis factor alpha release in mice relative to prednisolone at 3 mg/kg dose. The class given is organism-based. Also noted: dose 3 mg/kg.
In test [7] the target is T2, Glucocorticoid receptor. Briefly: Inhibition of GR-mediated tyrosine amino transferase activity in human HepG2 cells. The class given is cell-based.

For `C[C@]12Cc3cnn(-c4ccc(F)cc4)c3C=C1CCC[C@@H]2[C@@H](O)Cc1ccc(F)cc1`, the results for the EC50 on Glucocorticoid receptor [1] and on Glucocorticoid receptor [2] were 0.017 µM and 0.0037 µM, respectively. The compound further yielded an IC50 on Glucocorticoid receptor [3] of 0.0046 µM.

On to `C[C@]12Cc3cnn(-c4ccc(F)cc4)c3C=C1CCC[C@@H]2[C@@H](O)c1ccncc1`, for which the EC50 at Glucocorticoid receptor [2] was 0.215 µM; on Glucocorticoid receptor [4] it was 0.038 µM. At Glucocorticoid receptor [3], this compound yielded an IC50 of 0.0232 µM.

For `C[C@]12Cc3cnn(-c4ccc(F)cc4)c3C=C1CCC[C@@H]2[C@@H](O)c1cc2ccccc2s1`, the EC50 on Glucocorticoid receptor [1] was found to be 1.21 µM; at Glucocorticoid receptor [4] it was 0.019 µM.

Turning to `C[C@]12Cc3cnn(-c4ccc(F)cc4)c3C=C1CCC[C@@H]2[C@@H](O)c1ccoc1`, the EC50 was found to be 0.045 µM on Glucocorticoid receptor [2] and 0.0027 µM at Glucocorticoid receptor [4]. On Glucocorticoid receptor [3], this compound gave an IC50 of 0.0029 µM.

Turning to `C[C@]12Cc3cnn(-c4ccc(F)cc4)c3C=C1CCC[C@@H]2[C@@H](O)c1cc(Cl)sc1Cl`, the figures for the EC50 at Glucocorticoid receptor [2] and on Glucocorticoid receptor [4] were 0.12 µM and 0.031 µM, respectively. Further, on Glucocorticoid receptor [3], the IC50 worked out at 0.0102 µM.

In the case of `C[C@]12C=CC(=O)C=C1CC[C@@H]1[C@@H]2[C@@H](O)C[C@@]2(C)[C@H]1CC[C@]2(O)C(=O)CO` [PREDNISOLONE], the EC50 on Glucocorticoid receptor [2] came to 0.0057 µM. The results for the inhibition in test [5] and in test [6] were 71% and 100%, respectively.

As for `C[C@]12Cc3cnn(-c4ccc(F)cc4)c3C=C1CCC[C@@H]2[C@@H](O)c1ccc(F)nc1`, the EC50 on Glucocorticoid receptor [1] stood at 0.26 µM; on Glucocorticoid receptor [2], 0.012 µM; at Glucocorticoid receptor [4] it was 0.013 µM. This compound also registered an IC50 on Glucocorticoid receptor [3] of 0.0136 µM.

Regarding `C[C@]12Cc3cnn(-c4ccc(F)cc4)c3C=C1CCC[C@@H]2[C@@H](O)c1cccs1`, the EC50 on Glucocorticoid receptor [2] was found to be 0.021 µM; on Glucocorticoid receptor [4], 0.037 µM. For the same compound, at Glucocorticoid receptor [3], the IC50 was 0.0071 µM.

As for `C[C@]12Cc3cnn(-c4ccc(F)cc4)c3C=C1CCC[C@@H]2[C@@H](O)c1csc2ccccc12`, the EC50 at Glucocorticoid receptor [2] is 0.054 µM; on Glucocorticoid receptor [4] it was 0.018 µM. Besides, the IC50 at Glucocorticoid receptor [3] was 0.0051 µM.

As to `C[C@]12Cc3cnn(-c4ccc(F)cc4)c3C=C1CCC[C@@H]2[C@H](O)c1ccc(F)nc1`, the EC50 on Glucocorticoid receptor [7] stood at 4.44 µM; at Glucocorticoid receptor [1] it was 0.023 µM; at Glucocorticoid receptor [2] it was 0.005 µM; at Glucocorticoid receptor [4], 0.021 µM. Also, at Glucocorticoid receptor [3], the IC50 was 0.0091 µM.

Take `C[C@]12Cc3cnn(-c4ccc(F)cc4)c3C=C1CCC[C@@H]2[C@H](O)c1csc2ccccc12`: the EC50 on Glucocorticoid receptor [7] came out at 0.356 µM; at Glucocorticoid receptor [1], 0.003 µM; at Glucocorticoid receptor [2] it was 0.011 µM; on Glucocorticoid receptor [4] it was 0.006 µM. Also, the IC50 at Glucocorticoid receptor [3] stood at 0.0015 µM.

Regarding `C[C@]12Cc3cnn(-c4ccc(F)cc4)c3C=C1CCC[C@@H]2[C@](C)(O)c1ccsc1`, the EC50 was determined as 0.0083 µM on Glucocorticoid receptor [1], 0.0052 µM on Glucocorticoid receptor [2] and 0.00096 µM on Glucocorticoid receptor [4].

As to `C[C@]12Cc3cnn(-c4ccc(F)cc4)c3C=C1CCC[C@@H]2[C@@H](O)c1ccc(Cl)s1`, the EC50 came to 1.07 µM on Glucocorticoid receptor [7], 0.034 µM on Glucocorticoid receptor [1], 0.017 µM at Glucocorticoid receptor [2] and 0.013 µM on Glucocorticoid receptor [4]. Also, the IC50 at Glucocorticoid receptor [3] came to 0.0076 µM.

In turn, `COc1cc([C@H](O)[C@H]2CCCC3=Cc4c(cnn4-c4ccc(F)cc4)C[C@@]32C)cc(F)c1F` displayed an EC50 at Glucocorticoid receptor [2] of 0.015 µM.

For the origin of these results see ChEMBL document CHEMBL1143546, “Novel heterocyclic glucocorticoids: in vitro profile and in vivo efficacy” (Bioorg Med Chem Lett, 2005).
